Laboratory results reported in patent US6225321A (priority 1997, dated 2001).
“And” between values parts separate entries of the source, which are not always exact repeats. Equal entries are not always repeated. Structures can show the parent of a compound that is named as a salt.

Experiments:
human = conditions: Shafer et al. 1991; cited from earlier work
[1] = cited from earlier work
Sprague Dawley rats = assay: Analgesic effect, cold ethanol bath tail flick test, intramuscular, rats; assay type: in vivo, rat; conditions: FIG. 6, rats, 25 micromole/kg intramuscular; for analgesic duration of Nalbuphine free base compared with the preparation of this ester: the shorter one is Nalbuphine free base
Protocol: Sprague Dawley rats(175 to 225 g) were used. Each group consisted of 6 rats and each rats was injected once intramuscularly on the rear leg. […]
The dose for each rat was 25 micromole per kg, intramuscularly.
In the experiment, a circulating cold ethanol bath with a temperature maintained at -20° C. was set up. After dosing, the rat tail(1/3 from the tip) was immersed in the bath. The latency for the rat to flick its tail from the bath was measured to be the nociceptive threshold. The effect of various opium alkaloid preparations can be determined with this test.
The nociceptive effect can be calculated as follows: [formula]
35, 25, 15 minutes before dosing, Male Sprague Dawley rat(175-225 g) was tested to measure the basic response latency. The time to top the experiment was set at 40 seconds to prevent the tail from cold sore. No cold sore were found in 40 sec. Five minutes after the drug was given to the rat, the flick test was performed every 10 minutes or more. […]
(c) Dinalbuphine sebacoyl ester, dose was 7.8125 μ/kg, 31.25 μM/kg, 125 μM/kg.
(d) 50 mg/ml dinalbuphine sebacoyl ester parenteral dosage forms, dinalbuphine sebacoyl ester was prepared in sesame oil.

[2] = between 17 and 28 hours; p<0.05
guinea pigs = assay: Analgesic effect, intramuscular, guinea pigs; assay type: in vivo, guinea pig; conditions: hydrochloride
Protocol: Six male Sprague Dawley rats (175 to 225 g), and six male guinea pigs (200 to 250 g) were used.
Dose for guinea pig was 500 μ/kg, 250 μM/kg.

[3] = comparison value for Nalbuphine hydrochloride, source not stated; cited from earlier work

With `Oc1ccc2c(c1)[C@@]13CCCC[C@@]1(O)[C@@H](C2)N(CC1CCC1)CC3` [Butorphanol] as the compound, how does the “dose needed to elicit the same analgesic effect” value (human) read?
Its value is 2 mg.

For `CCCCCCCCCC(=O)OC1(c2ccc(Cl)cc2)CCN(CCCC(=O)c2ccc(F)cc2)CC1` [Haloperidol decanoate], which “dosing frequency to which effect was extended” value ([1]; intramuscular, Gelders 1986) is on record?
Its value is 1 to 2 times a month.

For `CN1CC[C@]23c4c5ccc(O)c4O[C@H]2[C@@H](O)C=C[C@H]3[C@H]1C5` [Morphine], which “dose needed to elicit the same analgesic effect” value (human) is on record?
The value was 10 mg.

Which “analgesic duration of Nalbuphine free base compared with the preparation of this ester” value (Sprague Dawley rats) does the source give for `O=C(Oc1ccc2c3c1O[C@H]1[C@@H](O)CC[C@@]4(O)[C@@H](C2)N(CC2CCC2)CC[C@]314)c1ccccc1` [Nalbuphine benzoate] here?
Its value is “significantly shorter”.

With `CCCCCCCCCC(=O)Oc1ccc2c3c1O[C@H]1[C@@H](O)CC[C@@]4(O)[C@@H](C2)N(CC2CCC2)CC[C@]314` [Nalbuphine decanoate] as the compound, how does the “analgesic duration of Nalbuphine free base compared with the preparation of this ester” value (Sprague Dawley rats) read?
The value was “significantly shorter”.

With `CCCCCCC(=O)Oc1ccc2c3c1O[C@H]1[C@@H](O)CC[C@@]4(O)[C@@H](C2)N(CC2CCC2)CC[C@]314` [Nalbuphine enanthate] as the compound, how does the “analgesic duration of Nalbuphine free base compared with the preparation of this ester” value (Sprague Dawley rats) read?
The value was “significantly shorter”.

Which “analgesic duration compared with preparations of Nalbuphine monomer ester” value (Sprague Dawley rats) does the source give for `Oc1ccc2c3c1O[C@H]1[C@@H](O)CC[C@@]4(O)[C@@H](C2)N(CC2CCC2)CC[C@]314` [Nalbuphine free base, reference compound] here?
The value was “significantly shorter”.

What about the “amount of released Nalbuphine free base” value [2] of the same compound?
The value was “less in the preparation with sesame oil than with peanut oil ester and the control”.

For `Oc1ccc2c3c1O[C@H]1[C@@H](O)CC[C@@]4(O)[C@@H](C2)N(CC2CCC2)CC[C@]314` [Nalbuphine hydrochloride], which “dose at which significant analgesic effect was found” value (guinea pigs) is on record?
Its value is 500 µM/kg and 250 µM/kg.

What about the “half life for excretion” value [3] of the same compound?
The value was “about 1 hour”.

With `CC(C)(C)C(=O)Oc1ccc2c3c1O[C@H]1[C@@H](O)CC[C@@]4(O)[C@@H](C2)N(CC2CCC2)CC[C@]314` [Nalbuphine pivalate] as the compound, how does the “analgesic duration of Nalbuphine free base compared with the preparation of this ester” value (Sprague Dawley rats) read?
Its value is “significantly shorter”.

For `CCC(=O)Oc1ccc2c3c1O[C@H]1[C@@H](O)CC[C@@]4(O)[C@@H](C2)N(CC2CCC2)CC[C@]314` [Nalbuphine propionate], which “analgesic duration of Nalbuphine free base compared with the preparation of this ester” value (Sprague Dawley rats) is on record?
Its value is “significantly shorter”.

Which “dosing interval can be set longer to” value ([1]; Joshi et al. 1989) does the source give for `C#C[C@]1(OC(=O)CCCCCC)CC[C@H]2[C@@H]3CCC4=CC(=O)CC[C@@H]4[C@H]3CC[C@@]21C` [Northisterone enanthate] here?
Its value is “two months”.

Which drug release ([1]; suspension) does the source give for `C[C@]12CC[C@H]3[C@@H](CCC4=CC(=O)CC[C@@]43C)[C@@H]1CC[C@@H]2O` [Testosterone] here?
The drug release was “released quickly”.
